Source: patent publication US10669240B2, “5-substituted indazole-3-carboxamides and preparation and use thereof” (Samumed, LLC, priority 2014, dated 2020)
Where two headings read alike, the source gives them in different places.

Columns and labels:
DYRK1A = DYRK1A (Homo sapiens (Human), UniProt Q13627); test: DYRK1A activity Tau assay: pSer396 Tau in SH-SY5Y cells by ELISA / western blot; assay type: cell-based; conditions: overnight (16-18 h) exposure
[1] = test system: Wnt activity (Wnt-responsive SP5 promoter luciferase reporter in SW480 cells); test: Wnt activity reporter assay: SW480 cells with SP5 promoter-driven firefly luciferase; assay type: cell-based; conditions: 24 h after compound addition, read-out: Wnt inhibition
From the text: The above synthesized compounds were screened using the assay procedure for Wnt activity described below.
Reporter cell lines were generated by stably transducing cells of cancer cell lines (e.g., colon cancer) with a lentiviral construct that include a Wnt-responsive promoter driving expression of the firefly luciferase gene.
Lentiviral constructs were made in which the SP5 promoter, a promoter having eight TCF/LEF binding sites derived from the SP5 promoter, was linked upstream of the firefly luciferase gene. The lentiviral constructs included a hygromycin resistance gene as a selectable marker. The SP5 promoter construct was used to transduce SW480 cells, a colon cancer cell line having a mutated APC gene that generates a truncated APC protein, leading to de-regulated accumulation of β-catenin.
Cultured SW480 cells bearing a reporter construct were distributed at approximately 10,000 cells per well into 384 well multiwell plates. Compounds were then added to the wells in half-log dilutions using a three micromolar top concentration. A series of control wells for each cell type received only buffer and compound solvent. Twenty-four hours after the addition of compound, reporter activity for luciferases was assayed, for example, by addition of the BrightGlo luminescence reagent (Promega) and the Victor3 plate reader (Perkin Elmer). Readings were normalized to DMSO only treated cells, and normalized activities were then used for the IC50 calculations.

| Compound | EC50 (DYRK1A) [nM] | IC50 [1] [nM] | IC50 ([1]; Homo sapiens) [nM] |
| --- | --- | --- | --- |
| 5-(5-(Piperidin-1-ylmethyl)pyridin-3-yl)-N-(2-(pyrrolidin-1-yl)pyridin-4-yl)-1H-indazole-3-carboxamide [Compound 100] | 2 | 2600 | – |
| CN1CCC(NC(=O)c2n[nH]c3ccc(-c4cccnc4)cc23)CC1 [Compound 1, N-(1-Methylpiperidin-4-yl)-5-(pyridin-3-yl)-1H-indazole-3-carboxamide] | 65 | – | 1300 |
| O=C(NC1CCNCC1)c1n[nH]c2ccc(-c3cccnc3)cc12 [Compound 3, N-(Piperidin-4-yl)-5-(pyridin-3-yl)-1H-indazole-3-carboxamide] | 28 | – | 6440 |
| O=C(NC1CCCCC1)c1n[nH]c2ccc(-c3cccnc3)cc12 [Compound 4, N-Cyclohexyl-5-(pyridin-3-yl)-1H-indazole-3-carboxamide] | 35 | – | 4460 |
| O=C(NC1CCC1)c1n[nH]c2ccc(-c3cccnc3)cc12 [Compound 5, N-Cyclobutyl-5-(pyridin-3-yl)-1H-indazole-3-carboxamide] | 18 | – | 11900 |
| O=C(NC1CC1)c1n[nH]c2ccc(-c3cccnc3)cc12 [Compound 6, N-Cyclopropyl-5-(pyridin-3-yl)-1H-indazole-3-carboxamide] | 22 | – | 5530 |
| CN1CCC(NC(=O)c2n[nH]c3ccc(-c4cncc(CN5CCC5)c4)cc23)CC1 [Compound 8, 5-(5-(Azetidin-1-ylmethyl)pyridin-3-yl)-N-(1-methylpiperidin-4-yl)-1H-indazole-3-carboxamide] | 53 | – | 6290 |
| O=C(NC1CC1)c1n[nH]c2ccc(-c3cncc(CN4CCCCC4)c3)cc12 [Compound 9, N-Cyclopropyl-5-(5-(piperidin-1-ylmethyl)pyridin-3-yl)-1H-indazole-3-carboxamide] | 2 | – | 2910 |
| O=C(NC1CC1)c1n[nH]c2ccc(-c3cc(F)cc(CN4CCCCC4)c3)cc12 [Compound 11, N-Cyclopropyl-5-(3-fluoro-5-(piperidin-1-ylmethyl)phenyl)-1H-indazole-3-carboxamide] | 36 | – | 7950 |
| CN1CCC(NC(=O)c2n[nH]c3ccc(-c4ccccc4F)cc23)CC1 [Compound 16, 5-(2-Fluorophenyl)-N-(1-methylpiperidin-4-yl)-1H-indazole-3-carboxamide] | 335 | – | 14600 |
| CN1CCC(NC(=O)c2n[nH]c3ccc(-c4ccc(F)c(F)c4)cc23)CC1 [Compound 19, 5-(3,4-Difluorophenyl)-N-(1-methylpiperidin-4-yl)-1H-indazole-3-carboxamide] | 848 | – | 6800 |
| CN1CCC(NC(=O)c2n[nH]c3ccc(-c4cc(F)cc(F)c4)cc23)CC1 [Compound 21, 5-(3,5-Difluorophenyl)-N-(1-methylpiperidin-4-yl)-1H-indazole-3-carboxamide] | 744 | – | 1310 |
| O=C(NCc1cccc(F)c1)c1n[nH]c2ccc(-c3cncc(CN4CCCCC4)c3)cc12 [Compound 27, N-(3-Fluorobenzyl)-5-(5-(piperidin-1-ylmethyl)pyridin-3-yl)-1H-indazole-3-carboxamide] | 2 | – | 1760 |
| O=C(NCc1cc(F)cc(F)c1)c1n[nH]c2ccc(-c3cncc(CN4CCCCC4)c3)cc12 [Compound 28, N-(3,5-Difluorobenzyl)-5-(5-(piperidin-1-ylmethyl)pyridin-3-yl)-1H-indazole-3-carboxamide] | 2 | – | 3100 |
| O=C(NCc1ccccc1)c1n[nH]c2ccc(-c3cc(F)cc(CN4CCCCC4)c3)cc12 [Compound 29, N-Benzyl-5-(3-fluoro-5-(piperidin-1-ylmethyl)phenyl)-1H-indazole-3-carboxamide] | 117 | – | 3470 |
| O=C(NC1(c2ccccc2)CC1)c1n[nH]c2ccc(-c3cncc(CN4CCC4)c3)cc12 [Compound 33, 5-(5-(Azetidin-1-ylmethyl)pyridin-3-yl)-N-(1-phenylcyclopropyl)-1H-indazole-3-carboxamide] | 63 | – | 6700 |
| O=C(NC1(c2ccccc2)CC1)c1n[nH]c2ccc(-c3cncc(CN4CCC(F)(F)C4)c3)cc12 [Compound 35, 5-(5-((3,3-Difluoropyrrolidin-1-yl)methyl)pyridin-3-yl)-N-(1-phenylcyclopropyl)-1H-indazole-3-carboxamide] | 85 | – | 6390 |

| Compound | EC50 (DYRK1A) [nM] | IC50 [1] [nM] | IC50 ([1]; Homo sapiens) [nM] |
| --- | --- | --- | --- |
| O=C(N[C@@H]1C[C@@H]1c1ccccc1)c1n[nH]c2ccc(-c3cccnc3)cc12 [Compound 38, N-((1R,2R)-2-Phenylcyclopropyl)-5-(pyridin-3-yl)-1H-indazole-3-carboxamide] | 4 | – | 1570 |
| O=C(N[C@@H]1C[C@@H]1c1ccccc1)c1n[nH]c2ccc(-c3cncc(CN4CCCCC4)c3)cc12 [Compound 39, N-((1R,2R)-2-Phenylcyclopropyl)-5-(5-(piperidin-1-ylmethyl)pyridin-3-yl)-1H-indazole-3-carboxamide] | 1 | – | 490 |
| Cc1cc2[nH]nc(C(=O)Nc3cccnc3)c2cc1-c1cccnc1 [Compound 44, 6-Methyl-N,5-di(pyridin-3-yl)-1H-indazole-3-carboxamide] | 23 | – | 6120 |
| CN1CCN(c2ccc(NC(=O)c3n[nH]c4ccc(-c5cncc(NC(=O)c6ccc(F)cc6F)c5)cc34)cn2)CC1 [Compound 47, 5-(5-(2,4-Difluorobenzamido)pyridin-3-yl)-N-(6-(4-methylpiperazin-1-yl)pyridin-3-yl)-1H-indazole-3-carboxamide] | – | – | 333 |
| CN1CCN(c2ccc(NC(=O)c3n[nH]c4ccc(-c5cncc(NC(=O)c6c(F)cccc6F)c5)cc34)cn2)CC1 [Compound 49, 5-(5-(2,6-Difluorobenzamido)pyridin-3-yl)-N-(6-(4-methylpiperazin-1-yl)pyridin-3-yl)-1H-indazole-3-carboxamide] | – | – | 226 |
| O=C(Nc1cccnc1)c1n[nH]c2ccc(-c3cncc(CN4CC(CO)(CO)C4)c3)cc12 [Compound 50, 5-(5-((3,3-Bis(hydroxymethyl)azetidin-1-yl)methyl)pyridin-3-yl)-N-(pyridin-3-yl)-1H-indazole-3-carboxamide] | – | – | 10000 |
| O=C(Nc1ccccn1)c1n[nH]c2ccc(-c3cncc(CN4CCCCC4)c3)cc12 [Compound 56, 5-(5-(Piperidin-1-ylmethyl)pyridin-3-yl)-N-(pyridin-2-yl)-1H-indazole-3-carboxamide] | 3 | – | 1100 |
| O=C(Nc1ncc(F)cc1F)c1n[nH]c2ccc(-c3cncc(CN4CCCCC4)c3)cc12 [Compound 58, N-(3,5-Difluoropyridin-2-yl)-5-(5-(piperidin-1-ylmethyl)pyridin-3-yl)-1H-indazole-3-carboxamide] | 3 | – | 4010 |
| [2H]C([2H])([2H])Oc1ccc(NC(=O)c2n[nH]c3ccc(-c4cncc(CN5CCCCC5)c4)cc23)cn1 [Compound 68, N-(6-(Methoxy-d3)pyridin-3-yl)-5-(5-(piperidin-1-ylmethyl)pyridin-3-yl)-1H-indazole-3-carboxamide] | – | – | 57 |
| [2H]C([2H])([2H])Oc1ccc(NC(=O)c2n[nH]c3ccc(-c4cncc(C([2H])([2H])N5CCCCC5)c4)cc23)cn1 [Compound 69, N-(6-(methoxy-d3)pyridin-3-yl)-5-(5-(piperidin-1-ylmethyl-d2)pyridin-3-yl)-1H-indazole-3-carboxamide] | – | – | 45 |
| O=C(Nc1ccc(OC(CO)CO)nc1)c1n[nH]c2ccc(-c3cncc(CN4CCCCC4)c3)cc12 [Compound 70, N-(6-((1,3-Dihydroxypropan-2-yl)oxy)pyridin-3-yl)-5-(5-(piperidin-1-ylmethyl)pyridin-3-yl)-1H-indazole-3-carboxamide] | – | – | 500 |
| O=C(Nc1ccc(N2CC(CO)(CO)C2)nc1)c1n[nH]c2ccc(-c3cncc(CN4CCCCC4)c3)cc12 [Compound 72, N-(6-(3,3-Bis(hydroxymethyl)azetidin-1-yl)pyridin-3-yl)-5-(5-(piperidin-1-ylmethyl)pyridin-3-yl)-1H-indazole-3-carboxamide] | – | – | 1500 |
| O=C(Nc1cccnc1)c1n[nH]c2ccc(-c3cncc(CN4CCS(=O)(=O)CC4)c3)cc12 [Compound 86, 5-(5-((1,1-Dioxidothiomorpholino)methyl)pyridin-3-yl)-N-(pyridin-3-yl)-1H-indazole-3-carboxamide] | – | – | 210 |
| O=C(Nc1cnccn1)c1n[nH]c2ccc(-c3cncc(CN4CCCCCC4)c3)cc12 [Compound 88, 5-(5-(Azepan-1-ylmethyl)pyridin-3-yl)-N-(pyrazin-2-yl)-1H-indazole-3-carboxamide] | – | – | 430 |
| CC(C)OCCCNC(=O)c1n[nH]c2ccc(-c3cncc(F)c3)cc12 [Compound 1263, 5-(5-Fluoropyridin-3-yl)-N-(3-isopropoxypropyl)-1H-indazole-3-carboxamide] | – | – | 1400 |
| COc1cccc(-c2ccc3[nH]nc(C(=O)NC(C)C)c3c2)c1F [Compound 1339, 5-(2-Fluoro-3-methoxyphenyl)-N-isopropyl-1H-indazole-3-carboxamide] | > 10000 | – | – |
| O=C(Nc1ccc(CN2CCCC2)cc1)c1n[nH]c2cc(F)c(-c3cccnc3)cc12 [Compound 1345, 6-Fluoro-5-(pyridin-3-yl)-N-(4-(pyrrolidin-1-ylmethyl)phenyl)-1H-indazole-3-carboxamide] | 22 | – | – |
